# Laboratory results as given in ChEMBL document CHEMBL3879908, “Pyrrolidinone carboxamide derivatives” (2014).
# Target: T1, Chemerin-like receptor 1 (Homo sapiens, UniProt Q99788)
# T1 sequence (Q99788 whole entry): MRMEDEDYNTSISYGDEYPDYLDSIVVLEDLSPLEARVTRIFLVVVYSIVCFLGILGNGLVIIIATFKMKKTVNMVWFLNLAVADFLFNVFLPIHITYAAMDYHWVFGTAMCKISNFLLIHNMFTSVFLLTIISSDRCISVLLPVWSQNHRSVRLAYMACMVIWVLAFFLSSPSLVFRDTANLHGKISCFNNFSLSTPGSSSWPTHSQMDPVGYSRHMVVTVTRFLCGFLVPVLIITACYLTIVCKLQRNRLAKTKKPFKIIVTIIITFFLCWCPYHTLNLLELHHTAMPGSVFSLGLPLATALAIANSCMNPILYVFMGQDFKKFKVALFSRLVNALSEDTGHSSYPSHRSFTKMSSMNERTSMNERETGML
# Assay: Displacement of [125I]-chemerin from ChemR23 (unknown origin) transfected in mouse BaF3 cells after 3 hrs by scintillation counting method
# Format: cell-based
row,SMILES,IC50
1,Cc1cccc(C)c1N1C[C@](C(=O)Nc2cc(C3CC3)cc(C(F)(F)F)c2)(C(C)C)CC1=O,≤ 30 nM
2,Cc1cccc(Br)c1N1CC(C(=O)Nc2cccc(C(F)(F)F)c2)CC1=O (centres undefined),300 to 6000 nM
3,Cc1cccc(C)c1N1C[C@@](CN(C)CC(F)(F)F)(C(=O)Nc2cc(C#N)cc(C(F)(F)F)c2)[C@H](C)C1=O,≤ 30 nM
4,Cc1cccc(C)c1N1CC(C(=O)Nc2cc(C(F)(F)F)cc(C(F)(F)F)c2)(C(C)N2CCCC2)CC1=O (centres undefined),300 to 6000 nM
5,Cc1cccc(N2CC(C(=O)Nc3cc(C(F)(F)F)cc(C(F)(F)F)c3)CC2=O)c1C (centres undefined),30 to 300 nM
6,C=CCc1cccc(C)c1N1CC(C(=O)Nc2cc(C(F)(F)F)cc(C(F)(F)F)c2)(C(C)C)CC1=O (centres undefined),≤ 30 nM
7,Cc1cccc(C)c1N1CC(C(=O)Nc2cc(C(F)(F)F)cc(C(F)(F)F)c2)(C2=CCN(C)CC2)CC1=O (centres undefined),30 to 300 nM
8,Cc1cccc(C)c1N1C[C@](C(=O)Nc2cc(C(F)(F)F)cc(C(F)(F)F)c2)(C(C)C)[C@H](C)C1=O,30 to 300 nM
9,COCC(C)(C)N(C)C[C@@]1(C(=O)Nc2cc(C(F)(F)F)cc(C(F)(F)F)c2)CN(c2c(C)cccc2C)C(=O)[C@H]1C,≤ 30 nM
10,Cc1cccc(C)c1N1CC(C(=O)Nc2cc(C(F)(F)F)cc(C(F)(F)F)c2)CC1=O (centres undefined),≤ 30 nM
11,Cc1cccc(C)c1N1CC(C(=O)Nc2cc(C(F)(F)F)cc(C(F)(F)F)c2)(C2=CCSCC2)CC1=O (centres undefined),≤ 30 nM
12,Cc1cccc(C)c1N1CC(CO)(C(=O)Nc2cc(C(F)(F)F)cc(C(F)(F)F)c2)CC1=O (centres undefined),30 to 300 nM
13,Cc1cccc(C)c1N1CC(CN2CCCC2)(C(=O)Nc2cc(C3CC3)cc(C(F)(F)F)c2)CC1=O (centres undefined),≤ 30 nM
14,CCN(C[C@@]1(C(=O)Nc2cc(C(F)(F)F)cc(C(F)(F)F)c2)CN(c2c(C)cccc2C)C(=O)[C@H]1C)C(C)C,≤ 30 nM
15,CC[C@@]1(C(=O)Nc2cc(OC3CCC3)cc(C(F)(F)F)c2)CN(c2c(C)cccc2C)C(=O)[C@H]1C,≤ 30 nM
16,CCc1cccc(C)c1N1CC(C(=O)Nc2ccc(C(F)(F)F)cc2)CC1=O (centres undefined),300 to 6000 nM
17,Cc1ccccc1N1CC(C)(C(=O)Nc2cc(C(F)(F)F)cc(C(F)(F)F)c2)CC1=O (centres undefined),≤ 30 nM
18,Cc1cccc(C)c1N1CC(CN2CCCC2)(C(=O)Nc2cc(C(F)(F)F)cc(C(F)(F)F)c2)CC1=O (centres undefined),300 to 6000 nM
19,Cc1cccc(C)c1N1C[C@@](CN(C)C)(C(=O)Nc2cc(C3CC3)cc(C(F)(F)F)c2)[C@H](C)C1=O,30 to 300 nM
20,CC[C@@]1(C(=O)Nc2cc(C3CC3)cc(C(F)(F)F)c2)CN(c2c(C)cccc2C)C(=O)[C@H]1C,≤ 30 nM
21,Cc1cccc(C)c1N1CC(C(=O)Nc2cc(C(F)(F)F)cc(C(F)(F)F)c2)(C2CCCCC2)CC1=O (centres undefined),≤ 30 nM
22,Cc1cccc(C)c1N1C[C@@](CN(C)C2CCCCC2)(C(=O)Nc2cc(C(F)(F)F)cc(C(F)(F)F)c2)[C@H](C)C1=O,≤ 30 nM
23,C/C=C/c1ccccc1N1CC(C(=O)Nc2cc(C(F)(F)F)cc(C(F)(F)F)c2)(C(C)C)CC1=O (centres undefined),30 to 300 nM

row,SMILES,IC50
1,CCc1cc(NC(=O)[C@]2(CN3CCC(F)(F)CC3)CN(c3c(C)cccc3C)C(=O)[C@H]2C)cc(C(F)(F)F)c1,30 to 300 nM
2,Cc1cccc(F)c1N1CC(C(=O)Nc2cc(C(F)(F)F)cc(C(F)(F)F)c2)(C(C)C)CC1=O (centres undefined),30 to 300 nM
3,CC[C@@]1(C(=O)Nc2cc(OC3CCCC3)cc(C(F)(F)F)c2)CN(c2c(C)cccc2C)C(=O)[C@H]1C,≤ 30 nM
4,Cc1cccc(C)c1N1C[C@]2(C(=O)Nc3cc(C(F)(F)F)cc(C(F)(F)F)c3)CC=CC[C@@H]2C1=O,300 to 6000 nM
5,Cc1cccc(C)c1N1CC(C(=O)Nc2cccc(Cl)c2)CC1=O (centres undefined),300 to 6000 nM
6,CO[C@@H]1CC2C(=O)N(c3c(C)cccc3C)CC2(C(=O)Nc2cc(C(F)(F)F)cc(C(F)(F)F)c2)C1 (some centres undefined),≤ 30 nM
7,COCCOc1cc(NC(=O)C2(C(C)C)CC(=O)N(c3c(C)cccc3Br)C2)cc(C(F)(F)F)c1 (centres undefined),300 to 6000 nM
8,Cc1cccc(C)c1N1C[C@@](CN2CCCC(F)(F)C2)(C(=O)Nc2cc(C(F)(F)F)cc(C(F)(F)F)c2)[C@H](C)C1=O,30 to 300 nM
9,Cc1cccc(C)c1N1CC(C(=O)Nc2cccc(C(F)(F)F)c2)CC1=O (centres undefined),300 to 6000 nM
10,CCN(CC(F)(F)F)C[C@@]1(C(=O)Nc2cc(C#N)cc(C(F)(F)F)c2)CN(c2c(C)cccc2C)C(=O)[C@H]1C,≤ 30 nM
11,CCC[C@@]1(C(=O)Nc2cc(C(F)(F)F)cc(C(F)(F)F)c2)CN(c2c(C)cccc2C)C(=O)[C@H]1C,≤ 30 nM
12,CC[C@@]1(C(=O)Nc2cc(N(C)C)cc(C(F)(F)F)c2)CN(c2c(C)cccc2C)C(=O)[C@H]1C,30 to 300 nM
13,Cc1cccc(C)c1N1C[C@@](CN2CCCCC2)(C(=O)Nc2cc(C(F)(F)F)cc(C(F)(F)F)c2)[C@H](C)C1=O,300 to 6000 nM
14,Cc1cccc(C)c1N1CC2(C(=O)Nc3cc(C(F)(F)F)cc(C(F)(F)F)c3)CC(N3CCCC3)CC2C1=O (centres undefined),30 to 300 nM
15,Cc1cccc(C)c1N1C[C@](C(=O)Nc2cc(OC(C)C)cc(C(F)(F)F)c2)(C(C)C)CC1=O,≤ 30 nM
16,Cc1cccc(C)c1N1CC(C(=O)Nc2cc(N3CCCCC3)cc(C(F)(F)F)c2)CC1=O (centres undefined),30 to 300 nM
17,Cc1cccc(C)c1N1CC(C(=O)Nc2cc(C(F)(F)F)cc(C(F)(F)F)c2)(C(C)(C)O)CC1=O (centres undefined),≤ 30 nM
18,CC[C@@]1(C(=O)Nc2cc(OC(C)C)cc(C(F)(F)F)c2)CN(c2c(C)cccc2C)C(=O)[C@H]1C,≤ 30 nM
19,Cc1cccc(C)c1N1C[C@@](CN2CCC(F)CC2)(C(=O)Nc2cc(C3CC3)cc(C(F)(F)F)c2)[C@H](C)C1=O,30 to 300 nM
20,CCCC1(C(=O)Nc2cc(C(F)(F)F)cc(C(F)(F)F)c2)CC(=O)N(c2c(C)cccc2C)C1 (centres undefined),≤ 30 nM
21,Cc1cccc(C)c1N1C[C@](C)(C(=O)Nc2cc(C(F)(F)F)cc(C(F)(F)F)c2)[C@H](C)C1=O,30 to 300 nM
22,Cc1cccc(C)c1N1C[C@@](CN2CCCC2)(C(=O)Nc2cc(C#N)cc(C(F)(F)F)c2)[C@H](C)C1=O,≤ 30 nM
23,CCN(C)C[C@@]1(C(=O)Nc2cc(C3CC3)cc(C(F)(F)F)c2)CN(c2c(C)cccc2C)C(=O)[C@H]1C,30 to 300 nM

row,SMILES,IC50
1,CCc1cccc(C)c1N1CC(C(=O)Nc2ccc(F)c(C(F)(F)F)c2)CC1=O (centres undefined),300 to 6000 nM
2,Cc1cccc(C)c1N1C[C@@](CN(CCF)CC2CC2)(C(=O)Nc2cc(C(F)(F)F)cc(C(F)(F)F)c2)[C@H](C)C1=O,≤ 30 nM
3,Cc1cccc(C)c1N1C[C@@](C)(C(=O)Nc2cc(Cl)cc(Cl)c2)[C@H](C)C1=O,≤ 30 nM
4,Cc1cccc(C)c1N1C[C@@](CN2CCC2)(C(=O)Nc2cc(C#N)cc(C(F)(F)F)c2)[C@H](C)C1=O,30 to 300 nM
5,Cc1cccc(CCN2CCCC2)c1N1CC(C(=O)Nc2cc(C(F)(F)F)cc(C(F)(F)F)c2)(C(C)C)CC1=O (centres undefined),300 to 6000 nM
6,COc1ccccc1N1CC(C(=O)Nc2cc(C3CC3)cc(C(F)(F)F)c2)(C(C)C)CC1=O (centres undefined),300 to 6000 nM
7,Cc1cccc(C)c1N1C[C@@](C)(C(=O)Nc2cc(C(F)(F)F)cc(C(F)(F)F)c2)[C@H](C)C1=O,≤ 30 nM
8,Cc1cccc(C)c1N1C[C@@](CN(C)CC(C)C)(C(=O)Nc2cc(C(F)F)cc(C(F)(F)F)c2)[C@H](C)C1=O,≤ 30 nM
9,CCOCc1cccc(C)c1N1CC(C(=O)Nc2cc(C(F)(F)F)cc(C(F)(F)F)c2)(C(C)C)CC1=O (centres undefined),300 to 6000 nM
10,Cc1cccc(C)c1N1CC(C(=O)Nc2cc(C(F)(F)F)cc(C(F)(F)F)c2)(C2CCOCC2)CC1=O (centres undefined),≤ 30 nM
11,Cc1cccc(C)c1N1CC2(C(=O)Nc3cc(C(F)(F)F)cc(C(F)(F)F)c3)CC=CCC2C1=O (centres undefined),≤ 30 nM
12,CCN(CC)C[C@@]1(C(=O)Nc2cc(OC(C)C)cc(C(F)(F)F)c2)CN(c2c(C)cccc2C)C(=O)[C@H]1C,30 to 300 nM
13,Cc1cccc(C)c1N1C[C@@](CN2CCC(F)(F)CC2)(C(=O)Nc2cc(C#N)cc(C(F)(F)F)c2)[C@H](C)C1=O,30 to 300 nM
14,Cc1cccc(C)c1N1C[C@@](CN(C)CCCCF)(C(=O)Nc2cc(C(F)(F)F)cc(C(F)(F)F)c2)[C@H](C)C1=O,≤ 30 nM
15,CCc1cccc(C)c1N1CC(C(=O)Nc2cccc(Cl)c2)CC1=O (centres undefined),300 to 6000 nM
16,Cc1cccc(C)c1N1CC(CC(C)C)(C(=O)Nc2cc(C(F)(F)F)cc(C(F)(F)F)c2)CC1=O (centres undefined),≤ 30 nM
17,CC[C@@H]1C(=O)N(c2c(C)cccc2C)C[C@@]1(C)C(=O)Nc1cc(C(F)(F)F)cc(C(F)(F)F)c1,≤ 30 nM
18,Cc1cccc(C)c1N1C[C@@](CN2CCCCC2)(C(=O)Nc2cc(C3CC3)cc(C(F)(F)F)c2)[C@H](C)C1=O,30 to 300 nM
19,Cc1cccc(C)c1N1CC(C(=O)Nc2ccc(Cl)cc2Cl)CC1=O (centres undefined),300 to 6000 nM
20,CC[C@@]1(C(=O)Nc2cc(CN3CCCC3)cc(C(F)(F)F)c2)CN(c2c(C)cccc2C)C(=O)[C@H]1C,300 to 6000 nM
21,CC[C@@H]1C(=O)N(c2c(C)cccc2C)C[C@@]1(CC)C(=O)Nc1cc(C(F)(F)F)cc(C(F)(F)F)c1,≤ 30 nM
22,Cc1ccccc1N1CC(C)(C(=O)Nc2cc(C(F)(F)F)cc(C(F)(F)F)c2)C(C)C1=O (centres undefined),≤ 30 nM
23,Cc1cccc(C)c1N1CC(C(=O)Nc2cc(C(F)(F)F)cc(C(F)(F)F)c2)(C2=CCS(=O)(=O)CC2)CC1=O (centres undefined),30 to 300 nM
